Test results taken from patent US8975259B2, “Compositions and methods for inhibiting G protein signaling” (University of Rochester, priority 2007, dated 2015).
Entries after “also recorded” stand apart in the source; their conditions may differ.

Tests used:
[1] = system: human δ opioid receptor (hDOR-CHO cells); assay: Total inositol phosphate assay in hDOR-CHO cells; format: cell-based; details: DPDPE, Deltorphin II, M119 10 μM; naltrindole 100 μM; result in words
Description: Chinese hamster ovary (CHO) cells stably expressing either the human κ (hKOR-CHO), δ (hDOR-CHO)(L. Toll, Stanford Research Institute, Palo Alto, Calif.) or μ (hMOR-CHO)(G. Uhl, National Institute on Drug Abuse, Baltimore, Md.) opioid receptor were used in the experiments. Cells in 6-well plates were labeled by adding 4 μCi of [^3H]inositol for 24 hr in inositol-free F-10 media, without serum. After labeling, LiCl was added directly to the labeling media at a final concentration of 10 mM. Ligands or peptides were added at the same time. The final volume of each well was 1 mL. The plates were put back in to the incubator at 37° C. for 30 min after which time the medium was aspirated and the plates were washed twice with 1× PBS. Ice-cold 50 mM formic acid, 1 mL, was added to the plates which were placed in the cold room at 4° C. for 30 min. After the incubation, the contents of the plates were applied to Dowex AG1-X8 columns and allowed to flow all the way through the column. The columns were washed, twice each, with 50 and 100 mM formic acid, for a total of four washes, followed by elution of the IP-containing fraction with 3 mL of 1.2 M ammonium formate/0.1 M formic acid. The eluted fraction was mixed with Scintisafe scintillation fluid, for high salt, and counted. The data are represented as the fold increase over control in total inositol phospates. All experiments were repeated three times and performed in duplicate. Control cells for each experiment were labeled with [^3H]inositol and LiCl, in the same manner as the treatment groups.

[2] = system: fMLP-dependent Ca2+ release in differentiated HL60 cells; assay: fMLP-dependent Ca2+ release in fura-2 loaded DMSO-differentiated HL60 cells; format: cell-based, human; details: 10 μM compound, 250 nM fMLP, result in words
Description: Cells were pretreated with DMSO or 10 μM compounds for 5 min prior to stimulation with 250 nM fMLP. […] Normalized peak Ca^2+ responses were pooled from three independent experiments each (mean±SEM). Cells were pretreated with DMSO (▪) or compounds (▴) for 5 min prior to stimulation. FIG. 5C is the same as A except 10 μM M201 was tested. […] Differentiated HL60 cells were treated with 10 μM compound prior to stimulation with 250 nM fMLP. Translocation of endogenous GRK2 was determined by Western blotting with a GRK2 antibody and quantitative chemiluminescence. Data are mean±SEM from 5 experiments, * P<0.05, **P<0.01 ANOVA. […] Differentiated HL60 cells stably over-expressing GFP-PHAkt were treated with 10 μM compound prior to stimulation with 100 nM fMLP. Translocation of GFP-PHAkt to the membrane was determined by Western blotting with an anti-GFP antibody and quantitative chemiluminescence. Data are mean±SEM from 4 experiments. *** P<0.001 ANOVA. […] Differentiated HL60 cells were pretreated with 10 μM of compound prior to stimulation with 1 μM fMLP for 5 min. Levels of phosphorylated and total ERK were determined by Western blotting.
Ca^2+ fluxes were measured using two 35 mL cultures of differentiated HL-60 neutrophil cultures (0.2×10^6 cells/mL). Cells were cultured for three days with in DMSO
(1.2%), washed in HSS and resuspended in 2 mL HBSS at a concentration of 7×10^s cells/mL. Addition of DMSO to the growth medium induces differentiation of these cells into morphologically and functionally mature neutrophils
(Collins, et al. (1978) Proc. Natl. Acad. Sci. USA 75:2458; Collins, et al. (1979) J. Exp. Med. 149:969). Neutrophils were preloaded with fura-2 (1 μM), a fluorescent Ca^2+-sensitive indicator (Suh, et al. (1996) J. Biol. Chem. 271:32753), for 45 minutes, washed with HBSS and resuspended in 2 mL of indicator-free HBSS. An 140 μL aliquote of cells was added to a total of 2 mL HBSS. Fluorescence ratios were taken by dual excitation at 340 and 380 nm and emission at 510 nm. After a stable baseline was established, either DMSO or NSC119910 was added and incubated for 5 minutes. […]

[3] = target: T1, PLCβ2-bGβ1γ2 interaction (UniProt P54311+P63212); assay: PLCβ2 binding to biotinylated Gβ1γ2 (avidin agarose precipitation); details: M119 10 μM, M201 1 μM; result in words
T1 construct: made in house; host or cells: bGβ1γ2: Sf9 insect cells
T1 sequence (P54311 whole entry): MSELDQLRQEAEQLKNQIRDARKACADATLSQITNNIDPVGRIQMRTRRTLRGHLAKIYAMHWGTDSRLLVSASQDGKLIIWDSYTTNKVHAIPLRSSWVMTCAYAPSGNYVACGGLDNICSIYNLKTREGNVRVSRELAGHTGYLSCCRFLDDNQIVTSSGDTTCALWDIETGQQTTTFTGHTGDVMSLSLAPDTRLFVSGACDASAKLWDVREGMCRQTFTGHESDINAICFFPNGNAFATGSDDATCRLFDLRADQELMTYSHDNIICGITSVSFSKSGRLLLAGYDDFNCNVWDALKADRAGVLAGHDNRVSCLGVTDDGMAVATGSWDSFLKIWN
T1 sequence (P63212 2-68 limits assumed): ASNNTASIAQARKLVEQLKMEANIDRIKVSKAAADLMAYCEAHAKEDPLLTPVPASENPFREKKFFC
Description: Purified PLCβ2 (0.25 ng) was assayed in the presence (▴) or absence (▪) of 100 nM purified Gβ1γ2. […] Assays contained 10 ng of purified p101/p110 PI3Kγ heterodimer with or without 100 nM purified Gβ1γ2. Left panel: (▴) 100 nM Gβ1γ2 or (▪) no βγ. […] M119 or M201 and 25 nM purified GRK2 were added simultaneously to 250 nM biotinylated Gβ1γ2 (bGβ1γ2) immobilized on streptavidin agarose. GRK2 was detected with antibody to GRK2. Data are representative (mean ±SEM, except D) repeated at least three times each. […] 30 nM bGβ1γ2 was incubated with either 30 nM PLCβ2 or PLCβ3 in the presence or absence of M119 or M201 for 16 h at 4° C. before precipitation with avidin agarose and detection with PLCβ2,or Gβ antibodies. […] Same as 4E with PLCβ3.

## O=C(O)C1CCCCC1c1c2ccc(=O)c(O)c-2oc2c(O)c(O)ccc12 (stereo not shown) [Compound M119, cyclohexanecarboxylic acid, 2-(4,5,6-trihydroxy-3-oxo-3H-xanthen-9-yl)-(9cl)]
[1]
  effect on IP generation over control treated cells: no significant effect
[2]
  effect on fMLP-induced Ca^2+ increase: attenuated
[2]; listed as NSC119910
  effect on fMLP-induced Ca^2+ increase: suppressed; also recorded: block
[3]
  effect on direct binding of bGβ1γ2 to PLCβ2: inhibited
